Assay results reported in US11673876B2, “Substituted aminobenzyl heteroaryl compounds as EGFR and/or PI3K inhibitors” (Mekanistic Therapeutics LLC, priority 2020, dated 2023).
Values after ≈ are worked out from the molar mass of the structure shown.

Tests used:
EGFR = EGFR (Homo sapiens (Human), UniProt P00533); assay: Z'-LYTE / Adapta kinase assay, EGFR; assay type: biochemical; conditions: for inhibition at 0.1 µM: read-out: EGFR % Inh. @ 100 nM
Excerpt: (§1) The Z′-LYTE® biochemical assay employs a fluorescence-based, coupled-enzyme format and is based on the differential sensitivity of phosphorylated and non-phosphorylated peptides to proteolytic cleavage (FIG. 6). The peptide substrate is labeled with two fluorophores one at each end—that make up a FRET pair. In the primary reaction, the kinase transfers the gamma-phosphate of ATP to a single tyrosine, serine or threonine residue in a synthetic FRET-peptide. In the secondary reaction, a site-specific protease recognizes and cleaves non-phosphorylated FRET-peptides. Phosphorylation of FRET-peptides suppresses cleavage by the Development Reagent. Cleavage disrupts FRET between the donor (i.e., coumarin) and acceptor (i.e., fluorescein) fluorophores on the FRET-peptide, whereas uncleaved, phosphorylated FRET-peptides maintain FRET. A ratiometric method, which calculates the ratio (the Emission Ratio) of donor emission to acceptor emission after excitation of the donor fluorophore at 400 nm, is used to quantitate reaction progress.
(§2) A significant benefit of this ratiometric method for quantitating reaction progress is the elimination of well-to-well variations in FRET-peptide concentration and signal intensities. As a result, the assay yields very high Z′-factor values (>0.7) at a low percent phosphorylation.
(§3) Both cleaved and uncleaved FRET-peptides contribute to the fluorescence signals and therefore to the Emission Ratio. The extent of phosphorylation of the FRET-peptide can be calculated from the Emission Ratio.
(§4) Enzyme: The ADAPTA universal kinase assay is a homogenous, fluorescent based immunoassay for the detection of ADP. In contrast to ATP depletion assays, the ADAPTA assay is extremely sensitive to ADP formation such that a majority of the signal change occurs in the first 10-20% conversion of ATP to ADP. This makes the ADAPTA universal kinase assay ideally suited for use with low activity kinases.
(§5) The principle of the ADAPTA universal kinase assay is outlined below. The assay itself can be divided into two phases: a kinase reaction phase, and an ADP detection phase. In the kinase reaction phase, all components required for the kinase reaction are added to the well, and the reaction is allowed to incubate for 60 minutes.
(§6) Z′-LYTE® Assay Conditions:
(§7) Test Compounds: The Test Compounds are screened in 1% DMSO (final) in the well. For 10 point titrations, 3-fold serial dilutions are conducted from the starting concentration.
(§8) Peptide/Kinase Mixtures: All Peptide/Kinase Mixtures are diluted to a 2× working concentration in the appropriate Kinase Buffer.
(§9) ATP Solution: All ATP Solutions are diluted to a 4× working concentration in Kinase Buffer (50 mM HEPES pH 7.5, 0.01% BRIJ-35, 10 mM MgCl2, 1 mM EGTA). ATP Km apparent is previously determined using a Z′-LYTE® assay.
(§10) Development Reagent Solution: The Development Reagent is diluted in Development Buffer. […]
(§11) 2.5 μL—4× Test Compound or 100 nL 100× plus 2.4 μL kinase buffer. 2. 5 μL—2× Peptide/Kinase Mixture. 3. 2.5 μL—4× ATP Solution. 4. 30-second plate shake. 5. 60-minute Kinase Reaction incubation at room temperature. 6. 5 μL—Development Reagent Solution. 7. 30-second plate shake. 8. 60-minute Development Reaction incubation at room temperature. 9.

DNA-PK = DNA-PK (Homo sapiens (Human), UniProt P78527); assay: Z'-LYTE / Adapta kinase assay, DNA-PK; assay type: biochemical; conditions: for inhibition at 0.1 µM: read-out: DNA-PK % Inh. @ 100 nM
Excerpt: as §1, §2, §3, §4, §5, §6, §7, §8, §9, §10, §11

[1] = Solubility determination (PBS 7.4, SIF, SGF); assay type: physicochemical; conditions: simulated intestinal fluid (SIF), kinetic from dmso stock; simulated intestinal fluid pH 6.8, 25° C., 2 hours; read-out: Solubility SIF
Experimental: Preparation of stock solutions: The stock solutions of test compounds and control compound diclofenac were prepared in DMSO at the concentrations of 10 mM.
Simulated Gastric Fluid (SGF): An aqueous mixture including hydrochloric acid, sodium chloride, and pepsin (pH=1.2).
Simulated Intestinal Fluid (SIF): Prepared by dissolving 6.8 g of KH2PO4 into about 500 mL ultrapure water and adjust the solution to a pH 6.8 with 0.1 M NaOH. 10 g trypsin is then dissolved into ultrapure water. The two solutions are mixed well and diluted with ultrapure water to a final volume of 1000 mL.
485 μL of (SIF, SGF, PBS 7.4, FESSIF, or FESSGF) was added into each vial of the cap-less Solubility Sample plate. The assay was performed in duplicate. Add one stir stick to each vial and seal using a molded PTFE/Silicone plug. […] After completion of the 2 hours, plugs were removed and the stir sticks were removed using a big magnet, the samples from the Solubility Sample plate were transferred into the filter plate. Using the Vacuum Manifold, all the samples were filtered. Aliquot of 5 μL and 5 μL DMSO were taken from the filtrate followed by addition of 490 μL of a mixture of H2O and acetonitrile containing internal standard (1:1). A certain proportion of ultrapure water was used to dilute the diluent according to the peak shape. The dilution factor was changed according to the solubility values and the LC-MS signal response.
Preparation of 300 μM standards (STD): From the 10 mM DMSO STD plate, 6 μL was transferred into the remaining empty plate, and then 194 μL of DMSO was added to that plate to have a STD concentration of 300 μM. From the 300 μM DMSO STD plate, 5 μL DMSO STD and 5 μL SIF was transferred into the remaining empty plate, and then 490 μL of a mixture of H2O and acetonitrile containing internal standard (1:1) was added to that plate to have a final STD concentration of 3 μM. A certain proportion of ultrapure water was used to dilute the diluent according to the peak shape. The concentrations of the standard samples were changed according to the LC-MS signal response.
Procedure for sample analysis: The plate was placed into the well plate autosampler. The samples were evaluated by LC-MS/MS analysis.
Data analysis: All calculations were carried out using Microsoft Excel. The filtrate was analyzed and quantified against a standard of known concentration using LC coupled with mass spectral peak identification and quantitation. Solubility values of the test compound and control compound were calculated as follows: […]
Any value of the compounds that was not within the specified limits was rejected and the experiment was repeated.

PI3Ka = PI3Ka (Homo sapiens (Human), UniProt P42336); assay: Z'-LYTE / Adapta kinase assay, PI3Ka; assay type: biochemical; conditions: for inhibition at 0.1 µM: read-out: PI3Ka % Inh. @ 100 nM
Excerpt: as §1, §2, §3, §4, §5, §6, §7, §8, §9, §10, §11

Chain of EGFR (P00533 25-1210): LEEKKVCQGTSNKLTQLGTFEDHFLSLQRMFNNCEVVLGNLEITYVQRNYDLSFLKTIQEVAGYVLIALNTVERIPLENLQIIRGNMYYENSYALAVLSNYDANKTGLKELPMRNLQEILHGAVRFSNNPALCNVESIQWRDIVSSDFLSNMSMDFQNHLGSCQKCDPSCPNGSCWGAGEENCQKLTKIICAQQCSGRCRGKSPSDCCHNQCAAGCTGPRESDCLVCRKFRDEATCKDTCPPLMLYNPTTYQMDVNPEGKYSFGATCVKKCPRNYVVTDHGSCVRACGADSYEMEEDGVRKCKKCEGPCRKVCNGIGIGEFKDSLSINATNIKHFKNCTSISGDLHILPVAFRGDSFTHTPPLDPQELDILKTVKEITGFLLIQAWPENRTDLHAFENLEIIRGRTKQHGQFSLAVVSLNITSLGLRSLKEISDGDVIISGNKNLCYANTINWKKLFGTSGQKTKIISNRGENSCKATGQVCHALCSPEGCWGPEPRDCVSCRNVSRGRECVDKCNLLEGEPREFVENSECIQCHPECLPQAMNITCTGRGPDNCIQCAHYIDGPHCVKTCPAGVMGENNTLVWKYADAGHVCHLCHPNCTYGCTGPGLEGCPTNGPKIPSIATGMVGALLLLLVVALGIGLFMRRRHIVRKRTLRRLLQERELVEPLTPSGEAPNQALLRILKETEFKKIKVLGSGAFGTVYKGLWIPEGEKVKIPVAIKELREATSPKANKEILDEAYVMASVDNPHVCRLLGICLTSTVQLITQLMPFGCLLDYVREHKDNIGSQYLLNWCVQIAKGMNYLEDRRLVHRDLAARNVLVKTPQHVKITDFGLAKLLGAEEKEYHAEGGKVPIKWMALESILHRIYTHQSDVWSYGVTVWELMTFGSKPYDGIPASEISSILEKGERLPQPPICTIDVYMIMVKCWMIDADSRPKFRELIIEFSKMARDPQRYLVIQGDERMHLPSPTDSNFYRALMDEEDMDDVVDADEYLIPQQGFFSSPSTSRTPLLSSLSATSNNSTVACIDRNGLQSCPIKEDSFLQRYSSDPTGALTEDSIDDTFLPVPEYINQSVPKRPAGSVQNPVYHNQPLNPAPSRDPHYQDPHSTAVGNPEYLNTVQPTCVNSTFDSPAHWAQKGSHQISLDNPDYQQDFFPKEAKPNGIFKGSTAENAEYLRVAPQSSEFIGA
Chain of PI3Ka (P42336 whole entry): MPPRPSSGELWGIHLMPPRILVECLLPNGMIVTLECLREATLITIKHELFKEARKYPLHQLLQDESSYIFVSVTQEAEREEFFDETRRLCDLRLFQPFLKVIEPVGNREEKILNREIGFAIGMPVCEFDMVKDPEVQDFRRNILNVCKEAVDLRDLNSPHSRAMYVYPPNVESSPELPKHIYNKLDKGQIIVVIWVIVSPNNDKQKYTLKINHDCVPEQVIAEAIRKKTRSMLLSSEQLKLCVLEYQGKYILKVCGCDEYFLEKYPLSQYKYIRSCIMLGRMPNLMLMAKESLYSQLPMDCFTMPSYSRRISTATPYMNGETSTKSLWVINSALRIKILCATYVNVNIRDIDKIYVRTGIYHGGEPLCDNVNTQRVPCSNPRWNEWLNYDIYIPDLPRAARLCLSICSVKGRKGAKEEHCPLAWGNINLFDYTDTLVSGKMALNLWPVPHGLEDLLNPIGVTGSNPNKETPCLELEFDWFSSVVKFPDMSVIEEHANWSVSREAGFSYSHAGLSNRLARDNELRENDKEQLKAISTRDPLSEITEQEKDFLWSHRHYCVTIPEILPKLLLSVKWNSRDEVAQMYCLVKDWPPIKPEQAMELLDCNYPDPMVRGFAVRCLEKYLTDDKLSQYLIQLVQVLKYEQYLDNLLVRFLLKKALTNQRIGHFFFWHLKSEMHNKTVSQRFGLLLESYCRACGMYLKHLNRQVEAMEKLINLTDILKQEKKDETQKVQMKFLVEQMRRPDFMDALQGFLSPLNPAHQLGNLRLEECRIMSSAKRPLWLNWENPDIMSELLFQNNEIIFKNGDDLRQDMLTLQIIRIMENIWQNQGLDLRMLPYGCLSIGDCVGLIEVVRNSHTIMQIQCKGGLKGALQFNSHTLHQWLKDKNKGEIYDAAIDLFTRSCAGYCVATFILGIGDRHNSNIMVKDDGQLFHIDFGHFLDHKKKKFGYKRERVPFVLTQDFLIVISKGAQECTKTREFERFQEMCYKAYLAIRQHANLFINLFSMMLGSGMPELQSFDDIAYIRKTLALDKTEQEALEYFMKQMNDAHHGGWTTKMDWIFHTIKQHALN
Chain of PI3Ka (P27986 whole entry partner): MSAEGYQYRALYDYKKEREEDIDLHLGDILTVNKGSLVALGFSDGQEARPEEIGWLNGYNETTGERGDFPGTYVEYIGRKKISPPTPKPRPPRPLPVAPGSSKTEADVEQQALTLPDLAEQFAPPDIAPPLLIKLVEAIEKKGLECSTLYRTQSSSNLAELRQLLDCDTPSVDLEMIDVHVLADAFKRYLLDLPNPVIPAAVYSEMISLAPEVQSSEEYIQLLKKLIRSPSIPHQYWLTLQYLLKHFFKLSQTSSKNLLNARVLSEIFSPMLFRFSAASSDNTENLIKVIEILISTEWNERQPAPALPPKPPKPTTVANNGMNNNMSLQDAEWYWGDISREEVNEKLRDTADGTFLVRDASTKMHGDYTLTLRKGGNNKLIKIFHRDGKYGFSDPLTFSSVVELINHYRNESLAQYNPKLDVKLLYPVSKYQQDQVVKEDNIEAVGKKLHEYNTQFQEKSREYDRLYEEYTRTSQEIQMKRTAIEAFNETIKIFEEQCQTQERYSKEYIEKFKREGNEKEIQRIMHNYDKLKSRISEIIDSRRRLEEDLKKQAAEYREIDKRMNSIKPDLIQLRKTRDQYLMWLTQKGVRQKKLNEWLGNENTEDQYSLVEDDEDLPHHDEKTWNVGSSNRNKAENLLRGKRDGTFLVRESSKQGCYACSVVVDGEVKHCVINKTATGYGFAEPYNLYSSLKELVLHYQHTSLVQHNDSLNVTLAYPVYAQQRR

Structure (SMILES)	IC50 (EGFR) [nM]	inhibition at 0.1 µM (EGFR) [%]	IC50 (DNA-PK) [nM]	inhibition at 0.1 µM (DNA-PK) [%]	solubility at 2 h [1] [µM]	IC50 (PI3Ka) [nM]	inhibition at 0.1 µM (PI3Ka) [%]
CC(Nc1c(C#N)cnc2ccc(-c3cncc(-c4n[nH]c(=O)o4)c3)cc12)c1ccccc1 (stereo not shown) [Compound 129, 6-[5-(2-oxo-3H-1,3,4-oxadiazol-5-yl)-3-pyridyl]-4-(1-phenylethylamino) quinoline-3-carbonitrile]	2 to 20	80 to 90	2 to 20	80 to 90	≤ 20	20 to 200	10 to 80
CC(Nc1c(C#N)cnc2ccc(-c3n[nH]c4cnccc34)cc12)c1ccccc1 (stereo not shown) [Compound 125, 4-(1-phenylethylamino)-6-(1H-pyrazolo [3,4-c]pyridin-3-yl)quinoline-3-carbonitrile]		> 90		10 to 80			< 10
Cc1nc2cc(-c3ccc4ncc(C#N)c(NC(C)c5ccccc5)c4c3)cnc2[nH]1 (stereo not shown) [Compound 56, 6-(2-methyl-3H-imidazo[4,5-b]pyridin-6-yl)-4-(1-phenylethylamino) quinoline-3-carbonitrile]		10 to 80		10 to 80			10 to 80
CC(Nc1c(C#N)cnc2ccc(-c3cncc(C(C)(C)O)c3)cc12)c1ccccc1 (stereo not shown) [Compound 67, 6-[5-(1-hydroxy-1-methyl-ethyl)-3-pyridyl]-4-(1-phenylethylamino) quinoline-3-carbonitrile]		10 to 80		10 to 80			10 to 80
CC(Nc1c(C#N)cnc2ccc(-c3cncc(C#N)c3)cc12)c1ccccc1 (stereo not shown) [Compound 64, 6-(5-cyano-3-pyridyl)-4-(1-phenylethylamino) quinoline-3-carbonitrile]		10 to 80		10 to 80			10 to 80
OCC(Nc1ncnc2ccc(-c3cnc4cnccn34)cc12)c1ccccc1 (stereo not shown) [Compound 140, 2-[(6-imidazo[1,2-a]pyrazin-3-ylquinazolin-4-yl)amino]-2-phenyl-ethanol]		10 to 80		< 10			< 10
CC(Nc1c(C#N)cnc2ccc(-c3cccc(-c4n[nH]c(=O)o4)c3)cc12)c1ccccc1 (stereo not shown) [Compound 127, 6-[3-(2-oxo-3H-1,3,4-oxadiazol-5-yl)phenyl]-4-(1-phenylethylamino) quinoline-3-carbonitrile]		80 to 90		10 to 80			< 10
CC(Nc1ncnc2ccc(-c3cnc4[nH]ncc4c3)cc12)c1ccccc1 (stereo not shown) [Compound 8, N-(1-phenylethyl)-6-(1H-pyrazolo[3,4-b]pyridin-5-yl)quinazolin-4-amine]		80 to 90		10 to 80			10 to 80
COC(=O)c1cncc(-c2ccc3ncnc(N[C@H](C)c4ccccc4)c3c2)c1 [Compound 135, methyl 5-[4-[[(1R)-1-phenylethyl]amino]quinazolin-6-yl]pyridine-3-carboxylate]		> 90		< 10			< 10
CC(Nc1ncnc2ccc(-c3cnc4[nH]nnc4c3)cc12)c1ccccc1 (stereo not shown) [Compound 24, N-(1-phenylethyl)-6-(3H-triazolo[4,5-b]pyridin-6-yl)quinazolin-4-amine]		> 90		10 to 80			10 to 80
C[C@@H](Nc1ncnc2ccc(-c3ccc4c(c3)C(=O)OC4)cc12)c1ccccc1 [Compound 136, 6-[4-[[(1R)-1-phenylethyl]amino]quinazolin-6-yl]-3H-isobenzofuran-1-one]		> 90		< 10			< 10
C[C@@H](Nc1ncnc2ccc(-c3cncc(-c4nnc[nH]4)c3)cc12)c1ccccc1 [Compound 138, (R)-6-(5-(4H-1,2,4-triazol-3-yl)pyridin-3-yl)-N-(1-phenylethyl)quinazolin-4-amine]		> 90		10 to 80			< 10

Continued, values first:

IC50 (EGFR) [nM]	inhibition at 0.1 µM (EGFR) [%]	IC50 (DNA-PK) [nM]	inhibition at 0.1 µM (DNA-PK) [%]	solubility at 2 h [1] [µM]	IC50 (PI3Ka) [nM]	inhibition at 0.1 µM (PI3Ka) [%]	Structure (SMILES)
	80 to 90		10 to 80			10 to 80	C[C@@H](Nc1c(C#N)cnc2ccc(-c3cnc4[nH]ncc4c3)cc12)c1ccccc1 [Compound 54R, 4-[[(1R)-1-phenylethyl]amino]-6-(1H-pyrazolo [3,4-b]pyridin-5-yl) quinoline-3-carbonitrile]
	80 to 90		10 to 80	20 to 100 (≈ 6.85 to 34.2 µg/mL)		10 to 80	CC(Nc1ncnc2ccc(-c3cnc(N)nc3)cc12)c1ccccc1 (stereo not shown) [Compound 7, 6-(2-aminopyrimidin-5-yl)-N-(1-phenylethyl)quinazolin-4-amine]
	> 90		< 10			< 10	CC(Nc1c(C#N)cnc2ccc(-c3n[nH]c4ccncc34)cc12)c1ccccc1 (stereo not shown) [Compound 124, 4-(1-phenylethylamino)-6-(1H-pyrazolo [4,3-c]pyridin-3-yl) quinoline-3-carbonitrile]
	10 to 80		10 to 80			< 10	CC(Nc1ncnc2ccc(-c3cnc4cnn(C)c4c3)cc12)c1ccccc1 (stereo not shown) [Compound 27, 6-(1-methylpyrazolo[4,3-b]pyridin-6-yl)-N-(1-phenylethyl)quinazolin-4-amine]
	> 90		> 90			80 to 90	CC(Nc1ncnc2ccc(-c3cnc(N)c(S(C)(=O)=O)c3)cc12)c1ccccc1 (stereo not shown) [Compound 31, 6-(6-amino-5-(methylsulfonyl)pyridin-3-yl)-N-(1-phenylethyl)quinazolin-4-amine]
		> 200	10 to 80	20 to 100 (≈ 7.73 to 38.6 µg/mL)	20 to 200	10 to 80	COc1cc(-c2ccc3ncnc(NC(C)c4ccccc4)c3c2)cnc1OC (stereo not shown) [Compound 22, 6-(5,6-dimethoxy-3-pyridyl)-N-(1-phenylethyl) quinazolin-4-amine]
	> 90		< 10			< 10	C[C@@H](Nc1ncnc2ccc(-c3cncc(C(=O)N(C)O)c3)cc12)c1ccccc1 [Compound 134, (R)-N-hydroxy-N-methyl-5-(4-((1-phenylethyl)amino)quinazolin-6-yl)nicotinamide]
